Measured values: PubChem BioAssay (NCI)
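In this assay, cells in 96-well plates receive the compound at five concentrations for 48 hours. Endpoints are linearly interpolated between the surrounding concentrations. TGI: concentration producing complete growth inhibition.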

Tests used:
Experiment in all cases: DTP human tumour cell line panel, 48 h
UACC-257 melanoma = test system: UACC-257 melanoma
MALME-3M melanoma = test system: MALME-3M melanoma
HOP-92 NSCLC = test system: HOP-92 NSCLC
NCI/ADR-RES ovarian = test system: NCI/ADR-RES ovarian
IGROV1 ovarian = test system: IGROV1 ovarian
MCF7 breast = test system: MCF7 breast
NCI-H522 lung = test system: NCI-H522 lung
NCI-H23 lung = test system: NCI-H23 lung
ACHN renal = test system: ACHN renal
RXF 393 renal = test system: RXF 393 renal
OVCAR-3 ovarian = test system: OVCAR-3 ovarian
RPMI-8226 leukemia = test system: RPMI-8226 leukemia
A498 renal = test system: A498 renal
UO-31 renal = test system: UO-31 renal
A549 NSCLC = test system: A549 NSCLC
786-0 renal = test system: 786-0 renal
BT-549 breast = test system: BT-549 breast
SK-MEL-28 melanoma = test system: SK-MEL-28 melanoma
SNB-75 CNS = test system: SNB-75 CNS
HL-60(TB) leukemia = test system: HL-60(TB) leukemia
CAKI-1 renal = test system: CAKI-1 renal
HS 578T breast = test system: HS 578T breast
OVCAR-5 ovarian = test system: OVCAR-5 ovarian
OVCAR-8 ovarian = test system: OVCAR-8 ovarian
UACC-62 melanoma = test system: UACC-62 melanoma
SN12C renal = test system: SN12C renal
MOLT-4 leukemia = test system: MOLT-4 leukemia
MDA-MB-231 breast = test system: MDA-MB-231 breast
LOX IMVI melanoma = test system: LOX IMVI melanoma
HT29 colon = test system: HT29 colon
MDA-N = test system: MDA-N
EKVX NSCLC = test system: EKVX NSCLC
COLO 205 colon = test system: COLO 205 colon
SF-268 CNS = test system: SF-268 CNS
M14 melanoma = test system: M14 melanoma
PC-3 prostate = test system: PC-3 prostate
SK-OV-3 ovarian = test system: SK-OV-3 ovarian
SK-MEL-5 melanoma = test system: SK-MEL-5 melanoma
HOP-62 NSCLC = test system: HOP-62 NSCLC
DU-145 prostate = test system: DU-145 prostate
U251 CNS = test system: U251 CNS
HCT-116 colon = test system: HCT-116 colon
SF-295 CNS = test system: SF-295 CNS
SK-MEL-2 melanoma = test system: SK-MEL-2 melanoma
SW-620 colon = test system: SW-620 colon
SR leukemia = test system: SR leukemia
KM12 colon = test system: KM12 colon
NCI-H226 lung = test system: NCI-H226 lung
T-47D breast = test system: T-47D breast
TK-10 renal = test system: TK-10 renal
MDA-MB-435 = test system: MDA-MB-435
SF-539 CNS = test system: SF-539 CNS
NCI-H460 lung = test system: NCI-H460 lung
K-562 leukemia = test system: K-562 leukemia
HCC-2998 colon = test system: HCC-2998 colon
HCT-15 colon = test system: HCT-15 colon
SNB-19 CNS = test system: SNB-19 CNS
CCRF-CEM leukemia = test system: CCRF-CEM leukemia
OVCAR-4 ovarian = test system: OVCAR-4 ovarian

CN(C)CCNc1ccc(NCC[N+](C)(C)Cc2ccc([N+](=O)[O-])cc2)c2c1C(=O)c1ccccc1C2=O
TGI (UACC-257 melanoma): > 25 µM
TGI (MALME-3M melanoma): > 25 µM
TGI (HOP-92 NSCLC): > 25 µM
TGI (NCI/ADR-RES ovarian): > 25 µM
TGI (IGROV1 ovarian): > 25 µM
TGI (MCF7 breast): > 25 µM
TGI (NCI-H522 lung): > 25 µM
TGI (NCI-H23 lung): > 25 µM
TGI (ACHN renal): > 25 µM
TGI (RXF 393 renal): > 25 µM
TGI (OVCAR-3 ovarian): > 25 µM
TGI (RPMI-8226 leukemia): > 25 µM
TGI (A498 renal): > 25 µM
TGI (UO-31 renal): > 25 µM
TGI (A549 NSCLC): > 25 µM
TGI (786-0 renal): > 25 µM
TGI (BT-549 breast): > 25 µM
TGI (SK-MEL-28 melanoma): > 25 µM
TGI (SNB-75 CNS): > 25 µM
TGI (HL-60(TB) leukemia): 13.6 µM
TGI (CAKI-1 renal): > 25 µM
TGI (HS 578T breast): > 25 µM
TGI (OVCAR-5 ovarian): > 25 µM
TGI (OVCAR-8 ovarian): > 25 µM
TGI (UACC-62 melanoma): > 25 µM
TGI (SN12C renal): > 25 µM
TGI (MOLT-4 leukemia): > 25 µM
TGI (MDA-MB-231 breast): > 25 µM
TGI (LOX IMVI melanoma): > 25 µM
TGI (HT29 colon): > 25 µM
TGI (MDA-N): > 25 µM
TGI (EKVX NSCLC): > 25 µM
TGI (COLO 205 colon): > 25 µM
TGI (SF-268 CNS): > 25 µM
TGI (M14 melanoma): > 25 µM
TGI (PC-3 prostate): > 25 µM
TGI (SK-OV-3 ovarian): > 25 µM
TGI (SK-MEL-5 melanoma): > 25 µM
TGI (HOP-62 NSCLC): > 25 µM
TGI (DU-145 prostate): > 25 µM
TGI (U251 CNS): > 25 µM
TGI (HCT-116 colon): > 25 µM
TGI (SF-295 CNS): > 25 µM
TGI (SK-MEL-2 melanoma): > 25 µM
TGI (SW-620 colon): > 25 µM
TGI (SR leukemia): > 25 µM
TGI (KM12 colon): > 25 µM
TGI (NCI-H226 lung): > 25 µM
TGI (T-47D breast): > 25 µM
TGI (TK-10 renal): > 25 µM
TGI (MDA-MB-435): > 25 µM

CC(=O)N1C(Nc2cnc3ccccc3c2)CCN1c1ccccc1 (stereo not given)
TGI (SF-539 CNS): > 10 µM
TGI (UACC-257 melanoma): > 10 µM
TGI (MALME-3M melanoma): > 10 µM
TGI (NCI/ADR-RES ovarian): > 10 µM
TGI (IGROV1 ovarian): > 10 µM
TGI (MCF7 breast): > 10 µM
TGI (NCI-H522 lung): > 10 µM
TGI (NCI-H23 lung): > 10 µM
TGI (NCI-H460 lung): > 10 µM
TGI (ACHN renal): > 10 µM
TGI (RXF 393 renal): > 10 µM
TGI (OVCAR-3 ovarian): > 10 µM
TGI (RPMI-8226 leukemia): > 10 µM
TGI (UO-31 renal): > 10 µM
TGI (K-562 leukemia): > 10 µM
TGI (A549 NSCLC): > 10 µM
TGI (786-0 renal): > 10 µM
TGI (BT-549 breast): > 10 µM
TGI (SK-MEL-28 melanoma): > 10 µM
TGI (SNB-75 CNS): > 10 µM
TGI (HL-60(TB) leukemia): > 10 µM
TGI (CAKI-1 renal): > 10 µM
TGI (HS 578T breast): > 10 µM
TGI (OVCAR-5 ovarian): > 10 µM
TGI (OVCAR-8 ovarian): > 10 µM
TGI (SN12C renal): > 10 µM
TGI (MOLT-4 leukemia): > 10 µM
TGI (HCC-2998 colon): > 10 µM
TGI (MDA-MB-231 breast): > 10 µM
TGI (LOX IMVI melanoma): > 10 µM
TGI (HT29 colon): > 10 µM
TGI (MDA-N): > 10 µM
TGI (EKVX NSCLC): > 10 µM
TGI (COLO 205 colon): > 10 µM
TGI (SF-268 CNS): > 10 µM
TGI (M14 melanoma): > 10 µM
TGI (PC-3 prostate): > 10 µM
TGI (SK-OV-3 ovarian): > 10 µM
TGI (SK-MEL-5 melanoma): > 10 µM
TGI (HOP-62 NSCLC): > 10 µM
TGI (DU-145 prostate): > 10 µM
TGI (HCT-15 colon): > 10 µM
TGI (HCT-116 colon): > 10 µM
TGI (SF-295 CNS): > 10 µM
TGI (SNB-19 CNS): > 10 µM
TGI (SK-MEL-2 melanoma): > 10 µM
TGI (SW-620 colon): > 10 µM
TGI (CCRF-CEM leukemia): > 10 µM
TGI (SR leukemia): > 10 µM
TGI (NCI-H226 lung): > 10 µM
TGI (OVCAR-4 ovarian): > 10 µM
TGI (T-47D breast): > 10 µM
TGI (TK-10 renal): > 10 µM
TGI (MDA-MB-435): > 10 µM
